Test results reported in patent US20230009608A1, “GRK2 INHIBITORS AND USES THEREOF” (Cygnal Therapeutics, Inc., priority 2020, published 2023).

How the values were obtained:
[1] = system: PAXF1657 control empty vector cell line; assay: 7-day proliferation assay, PAXF1657 control empty vector cell line (Example 9); format: cell-based; conditions: 168 h; Cell Line: PAXF1657 empty vector (EV) cell line; 7-day; read-out: C: 7-day proliferation assay: IC50 GeoMean
Method in brief: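 Seven-day growth in PAXF1657 lines engineered for GRK2 overexpression or knockout, measured by CellTiter-Glo; compounds tested at 30 μM-0.0002 μM final and replenished once at day 3.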

GRK2 = biological target: T1, GRK2 (Homo sapiens, UniProt P25098); assay: ADPGlo GRK2 Inhibition Assay (Example 8); format: biochemical; conditions: Enzyme Assay A, ADPGlo (Example 8); read-out: A: Enzymatic GRK2: IC50 (nM) (Example 8)
T1 construct: purchased SignalChem A14-10G
T1 sequence (P25098 1-689): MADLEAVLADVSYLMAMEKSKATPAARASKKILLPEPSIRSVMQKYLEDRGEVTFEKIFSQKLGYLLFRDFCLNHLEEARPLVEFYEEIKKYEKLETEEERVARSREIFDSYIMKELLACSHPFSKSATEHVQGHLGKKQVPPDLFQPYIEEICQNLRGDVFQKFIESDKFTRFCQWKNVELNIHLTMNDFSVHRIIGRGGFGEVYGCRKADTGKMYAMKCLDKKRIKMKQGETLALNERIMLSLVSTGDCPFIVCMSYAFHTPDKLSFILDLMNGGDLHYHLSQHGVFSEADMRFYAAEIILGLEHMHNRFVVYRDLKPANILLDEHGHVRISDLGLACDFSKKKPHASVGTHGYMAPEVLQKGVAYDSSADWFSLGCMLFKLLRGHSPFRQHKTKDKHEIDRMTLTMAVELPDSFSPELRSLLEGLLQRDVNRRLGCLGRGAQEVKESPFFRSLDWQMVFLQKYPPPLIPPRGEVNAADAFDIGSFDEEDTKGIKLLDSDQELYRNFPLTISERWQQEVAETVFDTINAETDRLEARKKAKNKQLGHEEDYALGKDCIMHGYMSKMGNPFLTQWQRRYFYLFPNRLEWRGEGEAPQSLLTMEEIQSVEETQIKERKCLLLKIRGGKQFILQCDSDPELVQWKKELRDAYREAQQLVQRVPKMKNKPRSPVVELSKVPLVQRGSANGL
Method in brief: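 GRK2 (15 nM 2× enzyme solution) was preincubated 15 min with compound, then reacted 180 min at room temperature with 2× mix of 20 μM ATP plus GRKtide in HEPES pH 7.5, MgCl2, Tween-20, DTT. ADP was detected by ADP-Glo luminescence. Percent inhibition was normalised to enzyme and no-enzyme controls, with dose-response curves from threefold dilutions starting at 100 μM.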

IC50 (GRK2) [nM]	Structure (SMILES)	IC50 [1] [µM]
34	Cn1c(CNc2cccc(C(=O)NC3(c4ccccc4)CC3)c2)nnc1-c1ccncn1	> 10
22	Cn1ncc(Br)c1CNC(=O)c1cccc(NCc2nnc(-c3ccncn3)n2C)c1	> 10
43	Cn1c(CNc2cccc(C(=O)NCc3cccc(OCC(F)F)c3)c2)nnc1-c1ccncn1	> 10
15	Cn1c(CNc2cccc(C(=O)NCc3cccc4c3OCCO4)c2)nnc1-c1ccncn1	2.07
430	Cc1ccnc(CNC(=O)c2cccc(NCc3nnc(-c4ccncn4)n3C)c2)c1	> 10
540	Cn1c(CNc2cccc(C(=O)NCc3cccnc3)c2)nnc1-c1ccncn1	> 10
17	CC(NC(=O)c1cccc(NCc2nnc(-c3ccncn3)n2C)c1)c1cnn(C)c1 (stereo not shown)	0.19
50	Cc1ccncc1C(C)NC(=O)c1cccc(NCc2nnc(-c3ccncn3)n2C)c1 (stereo not shown)	0.537
67	CCCC(NC(=O)c1cccc(NCc2nnc(-c3ccncn3)n2C)c1)c1ccccn1 (stereo not shown)	1.22
59	Cn1c(CNc2cccc(C(=O)NCc3ncnn3-c3ccccc3)c2)nnc1-c1ccncn1	> 10
37	Cn1c(CNc2cccc(C(=O)NC(CCO)c3cccc(F)c3)c2)nnc1-c1ccncn1 (stereo not shown)	> 10
46	COCC(NC(=O)c1cccc(NCc2nnc(-c3ccncn3)n2C)c1)c1ccc(F)c(F)c1 (stereo not shown)	0.28
200	Cn1c(CNc2cccc(C(=O)NC3(c4cccnc4)CC3)c2)nnc1-c1ccncn1	0.583
45	C[C@H](NC(=O)c1cccc(NCc2nnc(-c3ccncn3)n2C)c1)c1ccncc1	0.771
12	Cn1c(CNc2cccc(C(=O)NC3COc4cccc(F)c43)c2)nnc1-c1ccncn1 (stereo not shown)	> 10
15	Cc1cccc2c1OCC[C@@H]2NC(=O)c1cccc(NCc2nnc(-c3ccncn3)n2C)c1	> 10
20	Cn1c(CNc2cccc(C(=O)C[C@H]3CCCc4cccnc43)c2)nnc1-c1ccncn1	0.224
140	Cc1csc(C2(NC(=O)c3cccc(NCc4nnc(-c5ccncn5)n4C)c3)CCC2)n1	0.445
100	Cn1c(CNc2cccc(C(=O)NC3(c4ccncn4)CC3)c2)nnc1-c1ccncn1	0.726
32	CC(C)C(NC(=O)c1cccc(NCc2nnc(-c3ccncn3)n2C)c1)c1ccncc1 (stereo not shown)	1.17
17	Cn1c(CNc2cccc(C(=O)NCc3ncccc3C(F)(F)F)c2)nnc1-c1ccncn1	> 10
150	C[C@H](NC(=O)c1cccc(NCc2nnc(-c3ccncn3)n2C)c1)C1NCCS1 (stereo partly shown)	0.172

IC50 (GRK2) [nM]	Structure (SMILES)	IC50 [1] [µM]
9.4	CC(NC(=O)c1cccc(NCc2nnc(-c3ccncn3)n2C)c1)c1ncccc1Br (stereo not shown)	> 10
72	CCn1cnnc1CNC(=O)c1cccc(NCc2nnc(-c3ccncn3)n2C)c1	> 10
27	COc1cccc(F)c1C(C)NC(=O)c1cccc(NCc2nnc(-c3ccncn3)n2C)c1 (stereo not shown)	> 10
46	COC[C@H](NC(=O)c1cccc(NCc2nnc(-c3ccncn3)n2C)c1)c1cccnc1	6.11
22	Cn1c(CNc2cccc(C(=O)NC(c3ccncc3)C3CCC3)c2)nnc1-c1ccncn1 (stereo not shown)	0.136
15	COc1cccc2c1CCC2NC(=O)c1cccc(NCc2nnc(-c3ccncn3)n2C)c1 (stereo not shown)	0.543
170	Cn1c(CNc2cccc(C(=O)NCc3ccc(C[S+](C)[O-])cc3)c2)nnc1-c1ccncn1 (stereo not shown)	> 10
21	CC(NC(=O)c1cccc(NCc2nnc(-c3ccncn3)n2C)c1)c1ccc2c(c1)CC(=O)N2C (stereo not shown)	0.158
22	Cn1c(CNc2cccc(C(=O)NC3CCOc4ccccc43)c2)nnc1-c1ccncn1 (stereo not shown)	0.563
34	Cn1c(CNc2cccc(C(=O)NC(CO)c3cccc(C(F)(F)F)c3)c2)nnc1-c1ccncn1 (stereo not shown)	> 10
220	Cn1c(CNc2cccc(C(=O)NCc3nccc(Cl)c3F)c2)nnc1-c1ccncn1	< 0.039
41	Cn1cc(C(NC(=O)c2cccc(NCc3nnc(-c4ccncn4)n3C)c2)c2ccccc2)cn1 (stereo not shown)	0.0664
14	O=C(NCc1nccn1C(F)F)c1cccc(NCc2nnc(-c3ccncc3)[nH]2)c1	2.88
15	Cc1ccnc(CNC(=O)c2cccc(NCc3nnc(-c4ccncc4)[nH]3)c2)n1	> 10
20	CC(C)n1nccc1CNC(=O)c1cccc(NCc2nnc(-c3ccncc3)[nH]2)c1	> 10
19	O=C(NCc1cn[nH]c1C(F)F)c1cccc(NCc2nnc(-c3ccncc3)[nH]2)c1	> 10
28	Cc1nc(C)c(CNC(=O)c2cccc(NCc3nnc(-c4ccncc4)[nH]3)c2)nc1C	> 10
19	Cc1ncccc1CNC(=O)c1cccc(NCc2nnc(-c3ccncc3)[nH]2)c1	> 10
27	O=C(NCc1nccc(C(F)F)n1)c1cccc(NCc2nnc(-c3ccncc3)[nH]2)c1	> 10
12	CCn1ncc(Cl)c1CNC(=O)c1cccc(NCc2nnc(-c3ccncc3)[nH]2)c1	0.56
19	O=C(NCc1ccccc1-n1cncn1)c1cccc(NCc2nnc(-c3ccncc3)[nH]2)c1	> 10
26	COc1cnccc1CNC(=O)c1cccc(NCc2nnc(-c3ccncc3)[nH]2)c1	> 10

IC50 (GRK2) [nM]	Structure (SMILES)	IC50 [1] [µM]
13	O=C(NC1(c2ccncn2)CC1)c1cccc(NCc2nnc(-c3ccncc3)[nH]2)c1	> 10
24	CC(NC(=O)c1cccc(NCc2nnc(-c3ccncc3)[nH]2)c1)c1cnco1 (stereo not shown)	> 10
16	Cc1cnc(C(C)NC(=O)c2cccc(NCc3nnc(-c4ccncc4)[nH]3)c2)o1 (stereo not shown)	> 10
48	O=C(NCc1nnc2n1CCCC2)c1cccc(NCc2nnc(-c3ccncc3)[nH]2)c1	> 10
12	O=C(NCc1ccncc1)c1cccc(NCc2nnc(-c3ccncc3)[nH]2)c1	5.72
8.4	CCc1nc(CNC(=O)c2cccc(NCc3nnc(-c4ccncc4)[nH]3)c2)c(C)o1	0.866
17	O=C(NCc1ncccn1)c1cccc(NCc2nnc(-c3ccncc3)[nH]2)c1	> 10
25	O=C(NCc1ncco1)c1cccc(NCc2nnc(-c3ccncc3)[nH]2)c1	> 10
18	CCn1nc(C)c(CNC(=O)c2cccc(NCc3nnc(-c4ccncc4)[nH]3)c2)n1	3.11
45	O=C(NCc1nncn1C1CC1)c1cccc(NCc2nnc(-c3ccncc3)[nH]2)c1	> 10
11	COC[C@H](NC(=O)c1cccc(NCc2nnc(-c3ccncc3)[nH]2)c1)c1ccccn1	0.405
19	Cc1nnc(CNC(=O)c2cccc(NCc3nnc(-c4ccncc4)[nH]3)c2)n1C1CC1	> 10
17	O=C(NCc1cncc(F)c1)c1cccc(NCc2nnc(-c3ccncc3)[nH]2)c1	> 10
34	O=C(NCc1cncnc1)c1cccc(NCc2nnc(-c3ccncc3)[nH]2)c1	> 10
24	Cc1noc(C)c1CNC(=O)c1cccc(NCc2nnc(-c3ccncc3)[nH]2)c1	> 10
210	CC(C)n1cnnc1CNC(=O)c1cccc(NCc2nnc(-c3ccncc3)[nH]2)c1	> 10
20	CC(NC(=O)c1cccc(NCc2nnc(-c3ccncc3)[nH]2)c1)c1ccon1 (stereo not shown)	> 10
37	CC1CC(NC(=O)c2cccc(NCc3nnc(-c4ccncc4)[nH]3)c2)c2ncnn21 (stereo not shown)	> 10
20	O=C(NC1CCCn2ncnc21)c1cccc(NCc2nnc(-c3ccncc3)[nH]2)c1 (stereo not shown)	> 10
12	O=C(NC1CCCc2nccnc21)c1cccc(NCc2nnc(-c3ccncc3)[nH]2)c1 (stereo not shown)	0.736
20	O=C(NC(CO)c1ccccn1)c1cccc(NCc2nnc(-c3ccncc3)[nH]2)c1 (stereo not shown)	> 10
